Molecular target: hERG potassium ion channel (Homo sapiens, UniProt Q12809)
Assay: in vitro
Details: human
Procedure: CHO-hERG cells were cultured in a 175 cm^2 flask, and when the cell density was increased to 60-80%, the medium was removed and washed with 7 mL of PBS (Phosphate Buffered Saline phosphate buffer), and then digested with 3 mL of Detachin.
The single-cell high impedance sealing and the whole-cell mode formation process were all automatically completed by the Qpatch instrument. After obtaining the whole-cell recording mode, the cells were clamped at −80 mV (millivolt). Before giving a 5-second+40 mV depolarization stimulus, a 50 ms-50 mV pre-voltage was first given, repolarized to −50 mV for 5 seconds, and then returned to −80 mV. This voltage stimulation was applied every 15 seconds. After recording for 2 minutes, extracellular fluid was given for 5 minutes, and then the administration process was started. The compound concentration started from the lowest test concentration, and each test concentration was given for 2.5 minutes. […] At least 3 cells were tested at each concentration (n≥3).
The 20 mM compound mother solution was diluted with extracellular fluid, and 5 μL of 20 mM compound mother solution was added to 2495 μL of extracellular solution, diluted 500-fold to 40 μM, and then sequentially performed 3-fold continuous dilution in an extracellular fluid containing 0.2% DMSO to obtain the final concentration to be tested.
The experimental data were analyzed by XLFit software.

Chain of hERG potassium ion channel (Q12809 whole entry): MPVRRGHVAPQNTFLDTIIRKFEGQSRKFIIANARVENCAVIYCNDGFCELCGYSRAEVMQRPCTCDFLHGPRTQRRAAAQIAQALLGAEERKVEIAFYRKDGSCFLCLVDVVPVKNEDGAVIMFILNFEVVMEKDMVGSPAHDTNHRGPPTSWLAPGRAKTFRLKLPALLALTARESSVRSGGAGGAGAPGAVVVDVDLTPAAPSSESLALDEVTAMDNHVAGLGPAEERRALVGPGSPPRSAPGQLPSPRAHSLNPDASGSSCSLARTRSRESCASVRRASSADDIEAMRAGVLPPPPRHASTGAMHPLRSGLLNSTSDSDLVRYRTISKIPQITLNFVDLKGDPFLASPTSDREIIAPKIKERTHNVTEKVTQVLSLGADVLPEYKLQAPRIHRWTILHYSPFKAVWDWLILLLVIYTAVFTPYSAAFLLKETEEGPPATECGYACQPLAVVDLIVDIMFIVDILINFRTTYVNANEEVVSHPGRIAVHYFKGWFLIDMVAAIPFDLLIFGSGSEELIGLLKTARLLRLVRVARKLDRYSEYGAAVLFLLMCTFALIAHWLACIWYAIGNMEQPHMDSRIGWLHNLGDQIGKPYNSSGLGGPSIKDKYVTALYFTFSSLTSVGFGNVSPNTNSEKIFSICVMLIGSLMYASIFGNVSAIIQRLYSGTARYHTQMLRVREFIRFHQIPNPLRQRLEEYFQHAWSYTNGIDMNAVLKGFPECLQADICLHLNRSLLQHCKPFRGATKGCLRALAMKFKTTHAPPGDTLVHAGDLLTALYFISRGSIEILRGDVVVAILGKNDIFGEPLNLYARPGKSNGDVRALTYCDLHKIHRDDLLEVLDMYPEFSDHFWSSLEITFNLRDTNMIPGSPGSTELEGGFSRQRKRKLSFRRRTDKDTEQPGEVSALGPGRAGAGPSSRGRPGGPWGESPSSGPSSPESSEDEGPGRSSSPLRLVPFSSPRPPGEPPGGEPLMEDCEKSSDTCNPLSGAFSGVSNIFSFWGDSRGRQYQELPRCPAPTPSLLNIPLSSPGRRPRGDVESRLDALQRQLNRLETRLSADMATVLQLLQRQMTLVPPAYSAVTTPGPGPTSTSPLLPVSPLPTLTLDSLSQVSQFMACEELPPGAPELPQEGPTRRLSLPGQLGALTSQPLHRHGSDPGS

SMILES	inhibition at 2.5 min, 40 µM
COc1cc(N)c(Cl)cc1C(=O)NC1CCN(CCCOc2ccc(F)cc2)CC1OC (centres unmarked) [Cisapride]	87.4%

Molecular target: T1, PARP1 (Homo sapiens, UniProt P09874)
T1 construct: purchased BPS 80580
T1 sequence (P09874 whole entry): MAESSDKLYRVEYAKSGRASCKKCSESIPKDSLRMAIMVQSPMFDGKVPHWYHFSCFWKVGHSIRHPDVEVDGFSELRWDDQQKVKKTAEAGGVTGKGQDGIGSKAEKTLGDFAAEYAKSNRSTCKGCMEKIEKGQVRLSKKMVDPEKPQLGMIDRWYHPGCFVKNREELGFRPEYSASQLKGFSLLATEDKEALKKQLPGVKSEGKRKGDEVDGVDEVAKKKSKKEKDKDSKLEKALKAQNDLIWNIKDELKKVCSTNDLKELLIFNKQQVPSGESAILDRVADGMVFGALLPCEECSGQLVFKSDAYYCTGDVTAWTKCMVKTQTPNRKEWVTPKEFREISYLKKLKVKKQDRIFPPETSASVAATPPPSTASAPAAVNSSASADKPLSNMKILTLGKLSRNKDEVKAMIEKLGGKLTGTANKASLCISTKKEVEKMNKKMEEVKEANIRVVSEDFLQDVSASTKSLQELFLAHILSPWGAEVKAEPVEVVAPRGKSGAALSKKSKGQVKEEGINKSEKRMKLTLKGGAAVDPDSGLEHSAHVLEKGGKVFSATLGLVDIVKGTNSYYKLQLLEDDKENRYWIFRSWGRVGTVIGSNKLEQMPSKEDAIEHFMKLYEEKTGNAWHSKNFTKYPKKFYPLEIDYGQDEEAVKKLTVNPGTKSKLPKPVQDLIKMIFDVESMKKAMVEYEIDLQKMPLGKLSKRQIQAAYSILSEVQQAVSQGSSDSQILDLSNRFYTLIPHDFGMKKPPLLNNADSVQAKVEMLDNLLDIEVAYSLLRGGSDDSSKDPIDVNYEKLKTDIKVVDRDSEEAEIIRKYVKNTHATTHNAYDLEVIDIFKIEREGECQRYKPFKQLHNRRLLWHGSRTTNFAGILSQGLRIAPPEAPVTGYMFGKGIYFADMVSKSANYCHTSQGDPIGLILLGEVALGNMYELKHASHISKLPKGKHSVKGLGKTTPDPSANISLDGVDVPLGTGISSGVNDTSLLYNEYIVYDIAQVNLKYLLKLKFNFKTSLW
Assay: PARP1 Colorimetric Assay (PARP-1 kinase inhibitory activity)
Assay type: biochemical
Details: PARP1 colorimetric assay kit, 1 hour at room temperature; read-out: PARP1 (in vitro enzymatic inhibitory activity, IC50)
Procedure: PARP1 kinase activity was tested by the following method:
PARP1 Colorimetric Assay Kit (BPS, Cat #80580)
1. PARP1 Colorimetric Assay
2) 50 μL of diluted coating solution was added to each well for overnight at 4° C.
4) 200 μL of blocking buffer was added to each well and incubated at room temperature for 90 minutes.
1) A reaction solution was prepared in a ratio of […] 2.5 μL 10×PARP buffer+2.5 μL 10×PARP Assay mixture+5 μL Activated DNA+15 μL deionized water per well, and 25 μL of the reaction solution was added to each well (see Table 1).
4) 100 μL of colorimetric HRP substrate was added to each well and reacted at room temperature for 20 minutes.
5) 100 μL of 2 M H2SO4 was added to each well and OD 450 nm was read on a microplate reader.

SMILES	IC50
[2H]C1(c2ccc(-n3cc4cc(F)cc(C(N)=O)c4n3)c(F)c2)CCCNC1 (centres unmarked) [Example 19]	< 100 nM
[2H]C1(c2ccc(-n3cc4cccc(C(N)=O)c4n3)c(F)c2)CCCNC1 (centres unmarked) [Example 13]	100 to 500 nM
C[C@]1(c2ccc(-n3nc4c(C(N)=O)cccc4c3F)cc2)CCCNC1 [Example 53]	500 to 1000 nM
[2H][C@@]1(c2ccc(-n3cc4cc(F)cc(C(N)=O)c4n3)cc2)CCCNC1 [Example 5]	< 100 nM
NC(=O)c1ccc(F)c2cn(-c3ccc([C@]4(F)CCCNC4)cc3)nc12 [Example 41]	100 to 500 nM
C[C@]1(c2ccc(-n3cc4cccc(C(N)=O)c4n3)cc2)CCCNC1 (single isomer, unassigned) [Example 45, (R or S)-2-(4-(3-methylpiperidin-3-yl)phenyl)-2H-indazole-7-carboxamide]	100 to 500 nM
NC(=O)c1c(F)ccc2cn(-c3ccc([C@@]4(F)CCCNC4)cc3)nc12 [Example 39]	100 to 500 nM
NC(=O)c1ccc(F)c2cn(-c3ccc(C4(F)CCCNC4)cc3)nc12 (centres unmarked) [Example 40]	100 to 500 nM
NC(=O)c1cccc2cn(-c3ccc([C@@]4(F)CCCNC4)cc3F)nc12 [Example 35]	100 to 500 nM
CC1(c2ccc(-n3cc4cc(F)cc(C(N)=O)c4n3)cc2)CCCNC1 (centres unmarked) [Example 46]	100 to 500 nM
CC1(c2ccc(-n3nc4c(C(N)=O)cccc4c3F)cc2)CCCNC1 (centres unmarked) [Example 52]	500 to 1000 nM
NC(=O)c1ccc(F)c2cn(-c3ccc([C@@]4(F)CCCNC4)cc3)nc12 [Example 42]	100 to 500 nM
NC(=O)c1c(F)ccc2cn(-c3ccc(C4(F)CCCNC4)cc3)nc12 (centres unmarked) [Example 37]	100 to 500 nM
NC(=O)c1cc(F)cc2cn(-c3ccc(C4(F)CCCNC4)cc3)nc12 (centres unmarked) [Example 25]	< 100 nM
[2H][C@]1(c2ccc(-n3cc4cc(F)cc(C(N)=O)c4n3)cc2)CCCNC1 [Example 6]	< 100 nM
[2H][C@]1(c2ccc(-n3nc4c(C(N)=O)cccc4c3F)cc2)CCCNC1 [Example 11]	100 to 500 nM
NC(=O)c1cccc2c(F)n(-c3ccc(C4(F)CCCNC4)cc3)nc12 (centres unmarked) [Example 31]	100 to 500 nM
C[C@]1(c2ccc(-n3cc4cccc(C(N)=O)c4n3)c(F)c2)CCCNC1 [Example 56]	100 to 500 nM
C[C@]1(c2ccc(-n3cc4cccc(C(N)=O)c4n3)cc2)CCCNC1 [Example 44, (R or S)-2-(4-(3-methylpiperidin-3-yl)phenyl)-2H-indazole-7-carboxamide]	100 to 500 nM
[2H][C@@]1(c2ccc(-n3cc4cccc(C(N)=O)c4n3)cc2F)CCCNC1 [Example 9]	< 100 nM
NC(=O)c1cc(F)cc2cn(-c3ccc([C@@]4(F)CCCNC4)cc3)nc12 [Example 27]	< 100 nM
[2H][C@@]1(c2ccc(-n3nc4c(C(N)=O)cccc4c3F)cc2)CCCNC1 [Example 12]	100 to 500 nM
C[C@@]1(c2ccc(-n3cc4cccc(C(N)=O)c4n3)cc2F)CCCNC1 [Example 51]	100 to 500 nM
CC1(c2ccc(-n3cc4cccc(C(N)=O)c4n3)cc2)CCCNC1 (racemic) [Example 43, 2-(4-(3-Methylpiperidin-3-yl)phenyl)-2H-indazole-7-carboxamide]	100 to 500 nM
NC(=O)c1cccc2cn(-c3ccc(C4(F)CCCNC4)c(F)c3)nc12 (centres unmarked) [Example 28]	< 100 nM
[2H][C@]1(c2ccc(-n3cc4cc(F)cc(C(N)=O)c4n3)cc2F)CCCNC1 [Example 18]	< 100 nM
NC(=O)c1cccc2cn(-c3ccc([C@@]4(F)CCCNC4)c(F)c3)nc12 [Example 29]	< 100 nM

SMILES	IC50
NC(=O)c1cccc2cn(-c3ccc(C4(F)CCCNC4)cc3F)nc12 (centres unmarked) [Example 34]	100 to 500 nM
CC1(c2ccc(-n3cc4cccc(C(N)=O)c4n3)cc2F)CCCNC1 (centres unmarked) [Example 49]	100 to 500 nM
NC(=O)c1cccc2cn(-c3ccc([C@]4(F)CCCNC4)cc3F)nc12 [Example 36]	100 to 500 nM
C[C@@]1(c2ccc(-n3cc4cccc(C(N)=O)c4n3)c(F)c2)CCCNC1 [Example 57]	100 to 500 nM
NC(=O)c1cccc2cn(-c3ccc(C4(F)CCCNC4)cc3)nc12 (racemic) [Example 22, 2-(4-(3-Fluoropiperidin-3-yl)phenyl)-2H-indazole-7-carboxamide]	< 100 nM
[2H]C1(c2ccc(-n3nc4c(C(N)=O)cccc4c3F)cc2)CCCNC1 (centres unmarked) [Example 10]	100 to 500 nM
[2H]C1(c2ccc(-n3cc4cccc(C(N)=O)c4n3)cc2F)CCCNC1 (centres unmarked) [Example 7]	< 100 nM
C[C@]1(c2ccc(-n3cc4cc(F)cc(C(N)=O)c4n3)cc2)CCCNC1 [Example 48]	100 to 500 nM
[2H][C@@]1(c2ccc(-n3cc4cc(F)cc(C(N)=O)c4n3)c(F)c2)CCCNC1 [Example 20]	< 100 nM
C[C@@]1(c2ccc(-n3nc4c(C(N)=O)cccc4c3F)cc2)CCCNC1 [Example 54]	500 to 1000 nM
C[C@@]1(c2ccc(-n3cc4cc(F)cc(C(N)=O)c4n3)cc2)CCCNC1 [Example 47]	100 to 500 nM
C[C@]1(c2ccc(-n3cc4cccc(C(N)=O)c4n3)cc2F)CCCNC1 [Example 50]	100 to 500 nM
[2H][C@]1(c2ccc(-n3cc4cccc(C(N)=O)c4n3)cc2F)CCCNC1 [Example 8]	< 100 nM
NC(=O)c1cccc2c(F)n(-c3ccc([C@]4(F)CCCNC4)cc3)nc12 [Example 33]	100 to 500 nM
NC(=O)c1c(F)ccc2cn(-c3ccc([C@]4(F)CCCNC4)cc3)nc12 [Example 38]	100 to 500 nM
NC(=O)c1cccc2c(F)n(-c3ccc([C@]4(F)CCCNC4)cc3)nc12 [Example 30]	< 100 nM
[2H]C1(c2ccc(-n3cc4cc(F)cc(C(N)=O)c4n3)cc2)CCCNC1 (centres unmarked) [Example 4]	< 100 nM
[2H][C@]1(c2ccc(-n3cc4cc(F)cc(C(N)=O)c4n3)c(F)c2)CCCNC1 [Example 21]	< 100 nM
[2H][C@@]1(c2ccc(-n3cc4cc(F)cc(C(N)=O)c4n3)cc2F)CCCNC1 [Example 17]	< 100 nM
NC(=O)c1cc(F)cc2cn(-c3ccc([C@]4(F)CCCNC4)cc3)nc12 [Example 26]	< 100 nM
NC(=O)c1cccc2c(F)n(-c3ccc([C@@]4(F)CCCNC4)cc3)nc12 [Example 32]	100 to 500 nM
[2H][C@]1(c2ccc(-n3cc4cccc(C(N)=O)c4n3)c(F)c2)CCCNC1 [Example 14]	100 to 500 nM
CC1(c2ccc(-n3cc4cccc(C(N)=O)c4n3)c(F)c2)CCCNC1 (centres unmarked) [Example 55]	100 to 500 nM
[2H][C@@]1(c2ccc(-n3cc4cccc(C(N)=O)c4n3)c(F)c2)CCCNC1 [Example 15]	100 to 500 nM
NC(=O)c1cccc2cn(-c3ccc([C@]4(F)CCCNC4)cc3)nc12 (single isomer, unassigned) [Example 24, (R or S)-2-(4-(3-fluoropiperidin-3-yl)phenyl)-2H-indazole-7-carboxamide]	< 100 nM
[2H]C1(c2ccc(-n3cc4cc(F)cc(C(N)=O)c4n3)cc2F)CCCNC1 (centres unmarked) [Example 16]	< 100 nM

System: not listed separately
Assay: Pharmacokinetic study in rats
Details: SD rats, PO 10 mg/kg
Procedure: SD rats were used as test animals, and the drug concentrations in plasma at different times after intravenous and intragastric administration of the compounds of examples were determined by LC/MS/MS method(s) to study the pharmacokinetics of the compound in the present disclosure in rats
Healthy adult male SD (Sprague-Dawley) rats, 3 animals per test compound, 6-9 weeks old, weighing 250±50 g, were purchased from Shanghai SLAC Laboratory Animal Co., Ltd.
The appropriate amount of sample was weighed out, 0.5% Methocel/2% tween 80 was added to the final volume, and 2 mg/mL was prepared for intragastric administration.
Each 3 male SD rats of each test compound were taken by intragastric administration at a dosage of 10 mg/kg after fasting overnight.
Blood samples of each animal were collected at different time points 0.083-24 h from jugular vein puncture after administration, K2-EDTA anticoagulation, centrifugation, and blood plasma were collected, frozen at −70° C. until LC/MS/MS analysis.

SMILES	F	exposure amount (AUC) compared with Niraparib, in words
[2H]C1(c2ccc(-n3cc4cccc(C(N)=O)c4n3)cc2)CCCNC1 (single isomer, unassigned) [Example 3, (R or S)-2-(4-(piperidin-3-D-3-yl)phenyl)-2H-indazole-7-carboxamide]	62.3%	significantly higher

Same assay, conditions: SD rats, table head: Dose PO (10 mg/kg)

SMILES	CL	Vdss
[2H]C1(c2ccc(-n3cc4cccc(C(N)=O)c4n3)cc2)CCCNC1 (single isomer, unassigned) [Example 3, (R or S)-2-(4-(piperidin-3-D-3-yl)phenyl)-2H-indazole-7-carboxamide]	24.9 mL/min/kg	6.04 L/kg

Same assay, conditions: male, Sprague-Dawley, rat, in vivo, po, 10 mg/kg

SMILES	F	MRT	T1/2
NC(=O)c1cccc2cn(-c3ccc([C@]4(F)CCCNC4)cc3)nc12 (single isomer, unassigned) [Example 24, (R or S)-2-(4-(3-fluoropiperidin-3-yl)phenyl)-2H-indazole-7-carboxamide]	61.3%	4.63 h	2.64 h

Same assay, conditions: male, Sprague-Dawley, rat, plasma, po, 10 mg/kg, AUC, SD rats, PO 10 mg/kg

SMILES	AUC
[2H]C1(c2ccc(-n3cc4cccc(C(N)=O)c4n3)cc2)CCCNC1 (single isomer, unassigned) [Example 3, (R or S)-2-(4-(piperidin-3-D-3-yl)phenyl)-2H-indazole-7-carboxamide]	5160 ng·h/mL

Same assay, conditions: male, Sprague-Dawley, rat, plasma, po, 10 mg/kg, Cmax, SD rats, PO 10 mg/kg

SMILES	Cmax
[2H]C1(c2ccc(-n3cc4cccc(C(N)=O)c4n3)cc2)CCCNC1 (single isomer, unassigned) [Example 3, (R or S)-2-(4-(piperidin-3-D-3-yl)phenyl)-2H-indazole-7-carboxamide]	549 ng/mL

Same assay, conditions: male, Sprague-Dawley, rat, plasma, po, 10 mg/kg, MRT, SD rats, PO 10 mg/kg

SMILES	MRT
[2H]C1(c2ccc(-n3cc4cccc(C(N)=O)c4n3)cc2)CCCNC1 (single isomer, unassigned) [Example 3, (R or S)-2-(4-(piperidin-3-D-3-yl)phenyl)-2H-indazole-7-carboxamide]	7.95 h

Same assay, conditions: male, Sprague-Dawley, rat, plasma, po, 10 mg/kg, T1/2, SD rats, PO 10 mg/kg

SMILES	half-life
[2H]C1(c2ccc(-n3cc4cccc(C(N)=O)c4n3)cc2)CCCNC1 (single isomer, unassigned) [Example 3, (R or S)-2-(4-(piperidin-3-D-3-yl)phenyl)-2H-indazole-7-carboxamide]	3.18 h

— patent US11072596B2, “Poly(ADP-ribose) polymerase inhibitor, preparation method and use” (SELECTION BIOSCIENCE LLC, priority 2017, dated 2021)
